pIC50: −log10 of the molar value.
Tested on: CN0375-F725-PDC KRAS spheroid viability
Assay: Anticancer human tumor CN0375-F725-PDC patient-derived colon carcinoma cell line growth inhibition [KRAS2]
Conditions: spheroids with HUVEC and MSC; for pIC50: curve of first compound; for viability, T/C: stronger effect = lower value
Outline: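 KRAS-mutant tumor cells were grown as spheroids with HUVEC endothelial cells and human MSCs as stroma. Targeted agents were tested alone and with KRAS pathway inhibitors. Doses started at or near clinical Cmax, or 10 microM, descending half-log.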

[1] = second compound 0.0316 µM, first compound 0.0316 µM
[2] = second compound 0.0316 µM, first compound 0.1 µM
[3] = second compound 0.0316 µM, first compound 0.316 µM
[4] = second compound 0.0316 µM, first compound 1 µM
[5] = second compound 0.0316 µM, first compound 3.16 µM
[6] = second compound 0.0316 µM, first compound 10 µM
[7] = second compound 0.1 µM, first compound 0.0316 µM
[8] = second compound 0.1 µM, first compound 0.1 µM
[9] = second compound 0.1 µM, first compound 0.316 µM
[10] = second compound 0.1 µM, first compound 1 µM
[11] = second compound 0.1 µM, first compound 3.16 µM
[12] = second compound 0.1 µM, first compound 10 µM
[13] = second compound 0.316 µM, first compound 0.0316 µM
[14] = second compound 0.316 µM, first compound 0.1 µM
[15] = second compound 0.316 µM, first compound 0.316 µM
[16] = second compound 0.316 µM, first compound 1 µM
[17] = second compound 0.316 µM, first compound 3.16 µM
[18] = second compound 0.316 µM, first compound 10 µM
[19] = second compound 1 µM, first compound 0.0316 µM
[20] = second compound 1 µM, first compound 0.1 µM
[21] = second compound 1 µM, first compound 0.316 µM
[22] = second compound 1 µM, first compound 1 µM
[23] = second compound 1 µM, first compound 3.16 µM
[24] = second compound 1 µM, first compound 10 µM
[25] = second compound 3.16 µM, first compound 0.0316 µM
[26] = second compound 3.16 µM, first compound 0.1 µM
[27] = second compound 3.16 µM, first compound 0.316 µM
[28] = second compound 3.16 µM, first compound 1 µM
[29] = second compound 3.16 µM, first compound 3.16 µM
[30] = second compound 3.16 µM, first compound 10 µM
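Also: spheroids exposed to agents for 7 days.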

Row | Structure (SMILES) | pIC50 (second compound 0.0316 µM) | pIC50 (second compound 0.1 µM) | pIC50 (second compound 0.316 µM) | pIC50 (second compound 1 µM) | pIC50 (second compound 3.16 µM) | viability, T/C [1] | viability, T/C [2] | viability, T/C [3] | viability, T/C [4] | viability, T/C [5] | viability, T/C [6] | viability, T/C [7] | viability, T/C [8] | viability, T/C [9] | viability, T/C [10] | viability, T/C [11] | viability, T/C [12] | viability, T/C [13] | viability, T/C [14] | viability, T/C [15] | other results
1 | COC(=O)c1ccc2c(C(=Nc3ccc(N(C)C(=O)CN4CCN(C)CC4)cc3)c3ccccc3)c(O)[nH]c2c1 + C=CC(=O)N1CCN(c2nc(OCC3CCCN3C)nc3c2CCN(c2cccc4cccc(C)c24)C3)CC1CC#N | 5.53 | 5.55 | 5.63 | 5.83 | > 7.50 | 102% | 95.3% | 91.1% | 91.5% | 47.6% | 0.22% | 104% | 98.8% | 92.6% | 89.4% | 45.1% | 0.36% | 99.5% | 100% | 93.2% | viability, T/C [16]: 90.8%; viability, T/C [17]: 35.5%; viability, T/C [18]: 0.16%; viability, T/C [19]: 93.8%; viability, T/C [20]: 91.3%; viability, T/C [21]: 85.2%; viability, T/C [22]: 68.7%; viability, T/C [23]: 15.4%; viability, T/C [24]: 0.41%; viability, T/C [25]: 26.5%; viability, T/C [26]: 20.2%; viability, T/C [27]: 21.8%; viability, T/C [28]: 5.53%; viability, T/C [29]: 1.94%; viability, T/C [30]: 0.67%
2 | O=C(c1cc(Cc2n[nH]c(=O)c3ccccc23)ccc1F)N1CCN(C(=O)C2CC2)CC1 + C=CC(=O)N1CCN(c2nc(OCC3CCCN3C)nc3c2CCN(c2cccc4cccc(C)c24)C3)CC1CC#N | < 5.00 | < 5.00 | < 5.00 | < 5.00 | > 7.50 | 104% | 104% | 99% | 102% | 99.4% | 94.7% | 108% | 107% | 101% | 98.8% | 104% | 99.3% | 101% | 107% | 97.5% | viability, T/C [16]: 99.6%; viability, T/C [17]: 101%; viability, T/C [18]: 92.5%; viability, T/C [19]: 100%; viability, T/C [20]: 102%; viability, T/C [21]: 97.9%; viability, T/C [22]: 90.6%; viability, T/C [23]: 103%; viability, T/C [24]: 89%; viability, T/C [25]: 34.1%; viability, T/C [26]: 29%; viability, T/C [27]: 21.5%; viability, T/C [28]: 22.7%; viability, T/C [29]: 28.9%; viability, T/C [30]: 8.54%

Source: PubChem BioAssay AID1963860 (Molecular Pharmacology Branch, DTP, NCI, 2024)
